Measurements: patent US20160031863A1, “HISTONE DEACETYLASE INHIBITORS AND COMPOSITIONS AND METHODS OF USE THEREOF” (CHDI FOUNDATION, INC., priority 2013, published 2016)

Assays:
[1] = target: T1, Histone Deacetylase 4 (HDAC4) catalytic domain (Homo sapiens, UniProt P56524); experiment: Inhibition of HDAC4 catalytic domain enzymatic activity, fluorogenic substrate Boc-Lys(Tfa)-AMC; assay type: biochemical
T1 construct: 6x histidine tag (C); purchased BioFocus
Source text: The potency of compounds is quantified by measuring the Histone Deacetylase 4 (HDAC4) catalytic domain enzymatic activity using the fluorogenic substrate, Boc-Lys(Tfa)-AMC. The substrate is deacetylated to Boc-Lys-AMC by HDAC4. Cleavage by trypsin results in the release of the fluorophore AMC from the deacetylated substrate. The fluorescence of the sample is directly related to the histone deacetylase activity in the sample.
(§1) Serial dilutions of the compounds being tested and control reference compound (1-(5-(3-((4-(1,3,4-oxadiazol-2-yl)phenoxy)methyl)-1,2,4-oxadiazol-5-yl)thiophen-2-yl)-2,2,2-trifluoroethanone) are made by first resuspending the lyophilized compound to a final concentration of 10 mM in 100% dimethyl sulfoxide (DMSO). Stocks of 60 μL aliquots of the 10 mM compound in DMSO are prepared and stored at −20° C. From one stock aliquot of each compound to be tested and the reference compound, a 16-point serial dilution is prepared according to Table 1 using a 125 μL 16-channel Matrix multi-channel pipette (Matrix Technologies Ltd).
2 μL (200×) of each diluted solution and each control (full activity: 100% DMSO alone or full inhibition 1 mM) is stamped into V-bottomed polypropylene 384-well compound plates using either the Bravo (384-well head from Agilent) or 12.5 μL 16-channel Matrix multi-channel pipette (Matrix Technologies Ltd).
A working solution of enzyme is prepared from a 500 μg/mL stock aliquot of HDAC4 catalytic domain (thawed on ice) diluted to 0.2 μg/mL with assay buffer (50 mM Tris-HCl, 137 mM NaCl, 2.7 mM KCl, and 1 mM MgCl2 at pH 8 and equilibrated to room temperature) just prior to the addition of the enzyme to the assay.
5× (50 μM) substrate is prepared just prior to the addition to the assay. A 1 mM substrate stock is made by diluting a 100 mM Boc-Lys(Tfa)-AMC in DMSO solution 1:100 by adding it drop-wise to assay buffer (equilibrated to room temperature) while vortexing at slow speed to prevent precipitation. The 5× substrate is prepared by diluting the 1 mM substrate solution 1:20 by adding it drop-wise to assay buffer (equilibrated to room temperature) while vortexing at slow speed to prevent precipitation.
3× (30 μM) Developer/Stop Solution is prepared just prior to addition to the plate by diluting a stock solution of 10 mM reference compound 1:333 in 25 mg/mL trypsin (PAA Laboratories Ltd.) equilibrated to room temperature.
5 μL of each solution of 1:20 diluted compound from above is transferred to a clear bottomed, black, 384-well assay plate using the Bravo or the Janus (384-well MDT head from Perkin Elmer). Using a 16-channel Matrix multi-channel pipette, 35 μL of the working solution of HDAC4 catalytic domain enzyme (0.2 μg/mL in assay buffer) is transferred to the assay plate. The assay is then started by adding 10 μL of 5× (50 μM) substrate to the assay plates using either the Bravo, Janus or 16-channel Matrix multi-channel pipette. The assay plate is then shaken for two minutes on an orbital shaker at 900 rpm (rotations per minute). Next the plate is incubated for 15 minutes at 37° C. The reaction is stopped by adding 25 μL of 3× (30 μM) developer/stop solution to the assay plates using either the Bravo, Janus or a 16-channel Matrix multi-channel pipette. Assay plates are then shaken for 5 minutes on an orbital shaker at 1200 rpm. Next, the assay plates are incubated at 37° C. for 1 hour in a tissue culture incubator. Finally, the fluorescence is measured (Excitation: 355 nm, Emission: 460 nm) using PerkinElmer EnVision in top read mode.

[2] = tested on: cellular histone deacetylase enzymatic activity in Jurkat E6-1 cells; experiment: Inhibition of cellular HDAC activity in Jurkat E6-1 cells, fluorogenic substrate Boc-Lys(Tfa)-AMC; assay type: cell-based; settings: Homo sapiens
Experimental: The potency of the compounds is quantified by measuring the cellular histone deacetylase enzymatic activity using the fluorogenic substrate, Boc-Lys(Tfa)-AMC. After penetration in Jurkat E6-1 cells, the substrate is deacetylated to Boc-Lys-AMC. After cell lysis and cleavage by trypsin, the fluorophore AMC is released from the deacetylated substrate only. The fluorescence of the sample is directly related to the histone deacetylase activity in the sample.
Jurkat E6.1 cells are cultured according to standard cell culture protocols in Jurkat E6.1 Growth Media (RPMI without phenol red, 10% FBS, 10 mM HEPES, and 1 mM Sodium Pyruvate). Jurkat E6.1 cells are counted using a Coulter Counter and resuspended in Jurkat E6.1 growth media at a concentration of 75,000 cells/35 μL. 35 μL or 75,000 cells is seeded into Greiner microtitre assay plates. The plates are then incubated at 37° C. and 5% CO2 while other assay components are being prepared.
as §1, with “DMSO.” for “dimethyl sulfoxide (DMSO).”, “70” for “60”, “pipette.” for “pipette (Matrix Technologies Ltd).”
2 μL (200×) of each diluted solution and each control (full activity: 100% DMSO alone or full inhibition 1 mM) is stamped into V-bottom polypropylene 384-well compound plates using either the Bravo, Janus, or 12.5 μL 16-channel Matrix multi-channel pipette. Each well with the 200× compound solution is diluted 1:20 by the addition of 38 μL Jurkat assay buffer+DMSO (9.5% DMSO, RPMI without phenol red, 0.09% FBS, 9 mM Hepes, and 0.9 mM Sodium Pyruvate equilibrated to room temperature)
5× (500 μM) substrate is prepared just prior to the addition to the assay. The 5× substrate is prepared by diluting a 100 mM Boc-Lys(Tfa)-AMC in DMSO solution 1:200 by adding it drop-wise to Jurkat assay medium (RPMI without phenol red, 0.1% FBS, 10 mM Hepes, and 1 mM Sodium Pyruvate equilibrated to 37° C.) while vortexing at slow speed to prevent precipitation.
10 mL of 3× lysis buffer is prepared with 8.8 ml of 3× stock lysis buffer (50 mM Tris-HCl, pH 8.0, 137 mM NaCl, 2.7 mM KCl, 1 mM MgCl2, 1% Nonidet P40 Substitute equilibrated to room temperature) and 1.2 mL of 3 mg/mL Trypsin equilibrated to room temperature.
5 μL of each solution of 1:20 diluted compound from above is transferred to the Greiner microtitre assay plates with 75,000 cells/well using the Bravo. Cells are then incubated for 2 hours at 37° C. and 5% CO2. The assay is then started by adding 10 μL of 5× (500 μM) substrate to the assay plate using either the Bravo or 16-channel Matrix multi-channel pipette. The cells are then incubated for 3 hours at 37° C. and 5% CO2. Next, 25 μL of 3× lysis buffer is added to each well using either the 125 μL 16 channel pipette or the Bravo. The assay plate is then incubated overnight (15-16 hours) at 37° C. and 5% CO2. The following day, the plates are shaken on an orbital shaker for 1 minute at 900 rpm. Finally the top read fluorescence (Excitation: 355 nm, Emission: 460 nm) is measured using PerkinElmer EnVision.

T1 sequence (P56524 648-1032): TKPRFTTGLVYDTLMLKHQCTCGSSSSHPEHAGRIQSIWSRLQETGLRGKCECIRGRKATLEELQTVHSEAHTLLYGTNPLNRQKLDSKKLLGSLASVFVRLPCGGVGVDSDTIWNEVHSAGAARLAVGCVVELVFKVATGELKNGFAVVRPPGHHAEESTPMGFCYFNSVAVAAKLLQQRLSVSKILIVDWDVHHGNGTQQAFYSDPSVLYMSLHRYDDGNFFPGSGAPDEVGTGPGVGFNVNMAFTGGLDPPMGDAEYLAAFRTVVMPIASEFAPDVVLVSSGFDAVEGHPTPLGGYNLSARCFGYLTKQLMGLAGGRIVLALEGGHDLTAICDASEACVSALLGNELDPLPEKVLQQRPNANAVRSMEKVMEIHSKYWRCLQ

Row | SMILES | IC50 [1] | IC50 [2]
1 | O=C(NO)c1cc(-c2cccc3ccsc23)nn1-c1ccccc1 [Example 2, N-Hydroxy-3-(benzothiophen-7-yl)-1-phenyl-1H-pyrazole-5-carboxamide] | 0.12 µM | 2.72 µM
2 | O=C(NO)c1cc(Cc2ccccc2)nn1-c1ccccc1 [Example 4, N-Hydroxy-3-benzyl-1-phenyl-1H-pyrazole-5-carboxamide] | 0.96 µM | 10.2 µM
3 | O=C(NO)c1cc(-c2ccccc2Cl)nn1-c1ccccc1 [Example 5, N-Hydroxy-3-(2-chlorophenyl)-1-phenyl-1H-pyrazole-5-carboxamide] | 0.38 µM | 2.82 µM
4 | Cc1ccccc1-c1cc(C(=O)NO)n(-c2cccc(F)c2C)n1 [Example 10, N-hydroxy-1-(3-fluoro-2-methyl-phenyl)-3-(2-methyl-phenyl)-1H-pyrazole-5-carboxamide] | 0.75 µM | 5.68 µM
5 | CN1CC=C(c2cc(C(=O)NO)n(-c3ccccc3)n2)CC1 [Example 11, N-Hydroxy-3-(1-methyl-3,6-dihydro-2H-pyridin-4-yl)-1-phenyl-1H-pyrazole-5-carboxamide] | 0.24 µM | 4.07 µM
6 | O=C(NO)c1cc(OCc2ccccc2)nn1-c1ccccc1 [Example 13, N-Hydroxy-3-benzyloxy-1-phenyl-1H-pyrazole-5-carboxamide] | 27.5 µM | > 50 µM
7 | Cc1ccccc1-c1cc(C(=O)NO)n(-c2ccccc2)c1 [Example 15, N-Hydroxy-4-(2-methylphenyl)-1-phenyl-pyrrole-2-carboxamide] | 1.4 µM | 13.8 µM

Second part, the molecule after the results:

Row | IC50 [1] | IC50 [2] | SMILES
8 | 10.3 µM | 24.2 µM | O=C(NO)c1cc(-c2ccccc2)nn1-c1ccccc1 [Example 1, N-Hydroxy-1,3-diphenylpyrazole-5-carboxamide]
9 | 0.94 µM | 7.3 µM | Cc1ccccc1-c1cc(C(=O)NO)n(-c2ccccc2)n1 [Example 3, N-Hydroxy-3-(2-methylphenyl)-1-phenyl-1H-pyrazole-5-carboxamide]
10 | 2.7 µM | 20.3 µM | O=C(NO)c1cc(C2=CCCC2)nn1-c1ccccc1 [Example 6, N-Hydroxy-3-(cyclopenten-1-yl)-1-phenyl-1H-pyrazole-5-carboxamide]
11 | 1.8 µM | 12.1 µM | O=C(NO)c1cc(C2CCCC2)nn1-c1ccccc1 [Example 7, N-Hydroxy-3-cyclopentyl-1-phenyl-1H-pyrazole-5-carboxamide]
12 | 4.9 µM | 41.6 µM | O=C(NO)c1cc(-c2cncc(Cl)c2)nn1-c1ccccc1 [Example 8]
13 | 1.4 µM | 6.9 µM | Cc1ncccc1-c1cc(C(=O)NO)n(-c2ccccc2)n1 [Example 9, N-Hydroxy-3-(2-methyl-3-pyridyl)-1-phenyl-1H-pyrazole-5-carboxamide]
14 | 2.4 µM | 16 µM | Cc1ccccc1-c1cc(C(=O)NO)n(-c2ccccc2C)n1 [Example 12, N-Hydroxy-1,3-bis(2-methylphenyl)-1H-pyrazole-5-carboxamide]
15 | 9.9 µM | 46.2 µM | O=C(NO)c1cc(N2CCCC2)nn1-c1ccccc1 [Example 14, N-Hydroxy-1-phenyl-3-pyrrolidin-1-yl-1H-pyrazole-5-carboxamide]
16 | 0.71 µM | 6.17 µM | O=C(NO)c1cc(-c2ccccc2Cl)cn1-c1ccccc1 [Example 16, N-Hydroxy-4-(2-chlorophenyl)-1-phenyl-pyrrole-2-carboxamide]
